The record followed here is patent US10034886B2, “GLP-1 receptor modulators” (Celgene International II SÀRL, priority 2014, dated 2018).

T1 sequence (P43220 24-463): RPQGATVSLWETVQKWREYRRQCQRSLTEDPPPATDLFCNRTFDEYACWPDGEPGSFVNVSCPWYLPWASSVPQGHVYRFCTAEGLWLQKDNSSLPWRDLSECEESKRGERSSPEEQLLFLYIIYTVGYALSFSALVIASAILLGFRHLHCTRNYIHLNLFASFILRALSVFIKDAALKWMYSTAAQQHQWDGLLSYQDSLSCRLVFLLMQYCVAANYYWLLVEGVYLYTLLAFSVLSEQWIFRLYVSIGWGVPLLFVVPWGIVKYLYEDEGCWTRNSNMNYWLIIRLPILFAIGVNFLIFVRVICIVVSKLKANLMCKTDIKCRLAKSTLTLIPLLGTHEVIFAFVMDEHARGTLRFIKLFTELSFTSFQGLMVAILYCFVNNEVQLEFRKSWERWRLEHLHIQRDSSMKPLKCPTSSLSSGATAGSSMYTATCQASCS
T1 sequence (P01275 100-127 partner limits assumed): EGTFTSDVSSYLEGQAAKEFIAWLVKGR

The test has as its target T1, GLP-1R (Homo sapiens, UniProt P43220).
T1 construct: host or cells: GLP-1R CRE-bla CHO-K1 cells
Description: EC20 GLP-1(9-36) PAM cAMP assay: dose response of compound in the presence of fixed concentration of GLP-1(9-36). The test is classed as cell-based. The note with it: GLP-1R CRE-bla CHO-K1 cells, compound dose response with fixed concentration of GLP-1(9-36), read-out: EC20 GLP-1(9-36) PAM EC50. Summed up: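 GLP-1R CRE-bla CHO-K1 cells treated 30 min at 37 °C with 12-point compound dose response plus fixed EC20 GLP-1(9-36), with IBMX, in HBSS/HEPES/0.1% BSA pH 7.4. Total cAMP measured by luminescent detection against standard curve; EC50 and Emax from non-linear regression.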
For the compound `CCC[C@H]1CC[C@H](C2CCN(c3cnc(-c4ccc(C[C@H](NC(=O)c5ccc(C6CC6)cn5)C(=O)N5CC(C(=O)O)C5)cc4)nc3)CC2)CC1` [Compound 1538], the EC50 fell in the range of 0.8 to 2.5 µM.
Next, `CCC[C@H]1CC[C@H](C2CCN(c3cnc(-c4ccc(CC(NC(=O)c5ccc(C(C)(C)C)s5)C(=O)NS(=O)(=O)CC)cc4)nc3)CC2)CC1` (stereo partly drawn) [Compound 1539]: 2.5 to 5 µM; `CCC[C@H]1CC[C@H](C2CCN(c3cnc(-c4ccc(CC(NC(=O)c5ccc(C(C)(C)C)s5)C(=O)NS(=O)(=O)CCOC)cc4)nc3)CC2)CC1` (stereo partly drawn) [Compound 1540]: less than 0.8 µM.
`CCC[C@H]1CC[C@H](C2CCN(c3cnc(-c4ccc(CC(NC(=O)c5ccc(C(C)(C)C)s5)C(=O)NS(=O)(=O)CCC5CCC5)cc4)nc3)CC2)CC1` (stereo partly drawn) [Compound 1541]: the EC50 is 0.8 to 2.5 µM.
Under `CCC[C@H]1CC[C@H](C2CCN(c3cnc(-c4ccc(CC(NC(=O)c5ccc(C(C)(C)C)s5)C(=O)NS(=O)(=O)CC5CC5)cc4)nc3)CC2)CC1` (stereo partly drawn) [Compound 1542] stands less than 0.8 µM.
Turning to `CCC[C@H]1CC[C@H](C2CCN(c3cnc(-c4ccc(CC(NC(=O)c5ccc(C(C)(C)C)s5)C(=O)NS(=O)(=O)CC(=O)OC)cc4)nc3)CC2)CC1` (stereo partly drawn) [Compound 1543], the EC50 was less than 0.8 µM.
Next, `CCC[C@H]1CC[C@H](C2CCN(c3cnc(-c4ccc(CC(NC(=O)c5ccc(C(C)(C)C)s5)C(=O)NS(=O)(=O)CC(C)(C)C)cc4)nc3)CC2)CC1` (stereo partly drawn) [Compound 1544]: less than 0.8 µM.
Consider `CCC[C@H]1CC[C@H](C2CCN(c3cnc(-c4ccc(CC(NC(=O)c5ccc(C(C)(C)C)s5)C(=O)NS(=O)(=O)C(C)C)cc4)nc3)CC2)CC1` (stereo partly drawn) [Compound 1545], for which the EC50 is less than 0.8 µM.
Under `CCC[C@H]1CC[C@H](C2CCN(c3cnc(-c4ccc(CC(NC(=O)c5ccc(C(C)(C)C)s5)C(=O)NS(=O)(=O)C(C)(C)C)cc4)nc3)CC2)CC1` (stereo partly drawn) [Compound 1546] stands less than 0.8 µM; under `CCC[C@H]1CC[C@H](C2CCN(c3cnc(-c4ccc(CC(NC(=O)c5ccc(C(C)(C)C)s5)C(=O)NS(=O)(=O)CCN(C)C)cc4)nc3)CC2)CC1` (stereo partly drawn) [Compound 1547], less than 0.8 µM.
On to `CCC[C@H]1CC[C@H](C2CCN(c3cnc(-c4ccc(CC(NC(=O)c5ccc(C(C)(C)C)s5)C(=O)NS(=O)(=O)CCNC(=O)OC(C)(C)C)cc4)nc3)CC2)CC1` (stereo partly drawn) [Compound 1548], for which the EC50 is less than 0.8 µM.
Under `CCC[C@H]1CC[C@H](C2CCN(c3cnc(-c4ccc(CC(NC(=O)c5ccc(C(C)(C)C)s5)C(=O)NS(=O)(=O)C(F)(F)F)cc4)nc3)CC2)CC1` (stereo partly drawn) [Compound 1549] stands less than 0.8 µM.
On to `CCC[C@H]1CC[C@H](C2CCN(c3cnc(-c4ccc(CC(NC(=O)c5ccc(C(C)(C)C)s5)C(=O)NS(=O)(=O)CC(F)(F)F)cc4)nc3)CC2)CC1` (stereo partly drawn) [Compound 1550], for which the EC50 was less than 0.8 µM.
Next, `CCCCCCCOc1ccc(-c2nnc(-c3ccc(C[C@H](NC(=O)c4ccc(C(C)(C)C)cc4)C(=O)N4CC(C(=O)O)C4)cc3)s2)cc1` [Compound 1551]: 2.5 to 5 µM; `CCCCCCCOc1ccc(-c2nnc(-c3ccc(C[C@@H](NC(=O)c4ccc(C(C)(C)C)cc4)C(=O)N4CC(C(=O)O)C4)cc3F)s2)cc1` [Compound 1553]: 0.8 to 2.5 µM.
